From patent publication US20260183393A1, “IMMUNOSUPPRESSANT-RESISTANT MODIFIED ALLOGENEIC MODIFIED IMMUNE CELLS AND METHODS FOR USE THEREOF” (Beam Therapeutics Inc., priority 2023, published 2026)

B1: TSBT×6146: guide polynucleotide targeting PPIA (nucleic acid)
guide: CGTACCTGACACATAAACCCGTTTTAGAGCTAGAAATAGCAAGTTAAAATAAGGCTAGTCCGTTATCAACTTGAAAAAGTGGCACCGAGTCGGTGCTTTT
modifications: chemistry not given here
notes: guide polynucleotide targeting PPIA
B2: TSBT×6143: guide polynucleotide targeting PPIA (nucleic acid)
guide: GCCCGACCTCAAAGGAGACGGTTTTAGAGCTAGAAATAGCAAGTTAAAATAAGGCTAGTCCGTTATCAACTTGAAAAAGTGGCACCGAGTCGGTGCTTTT
modifications: chemistry not given here
notes: as for B1

Tests used:
19CAR-T cells [1] = assay: CAR-T cell proliferation assay; type: cell-based, human; conditions: corticosteroid treatment; JeKo-1 stimulation
Text: Primary human T cells were activated using an anti-CD3/CD28/CD2 reagent. Two-days after being contacted with the reagent, the T cells were edited using a base editor system containing the guide polynucleotide TSBT×1538 and the base editor ABE8.20m using electroporation, as described above. Following electroporation, both the T cells were transduced with a lentiviral vector encoding an anti-CD19 CAR (19CAR) and allowed to expand in culture for approximately 7 days before being cryopreserved for later analysis. Unedited anti-CD19 CAR-T cells were prepared as a negative control. The 19CAR-T cells were then thawed from cryopreservation and rested overnight before being stimulated using dynabeads coated with recombinant human CD19 protein-coated at a bead-to-cell ratio of 1:1. The T cells were cultured in the presence of 100 nM of the immunosuppressant rapamycin or dimethylsulfoxide (DMSO) as a control for 6 days. The total number of T cells were enumerated using a NucleoCounter NC-200™ automated cell counter.
Primary human T cells were activated using an anti-CD3/CD28/CD2 reagent. Two days after being contacted with the reagent, the T cells were edited using a base editor system containing the guide polynucleotide TSBT×1538 and the base editor ABE8.20m using the electroporation protocol described above. Both edited and unedited T cells were transduced with a lentiviral vector encoding an anti-CD19 CAR (19CAR) and allowed to expand in culture for approximately 7 days before being cryopreserved for later analysis. Unedited 19CAR-T cells were used as a control. For analysis, the 19CAR-T cells were thawed and rested for 72 hours before labeling using a CellTrace™ Far Red (CTFR) dye. After CTFR labeling, the 19CAR-T cells were stimulated using an Immunocult™ Human CD3/CD28/CD2 universal T cell activator in the presence of 100 nM of the immunosuppressant agent rapamycin or in the presence of DMSO (control) and allowed to incubate for an additional 3 days. Following the three-day incubation, the T cells were analyzed using flow cytometry to measure dilution of CTFR dye as an indicator of cell proliferation.
The following day, T cells were washed, counted and 1×10^4 cells were seeded in triplicate into a 96-well flat bottom plate alone or with 1×10^4 JeKo-1.GFP^+ tumor cells. […] On day 7, samples were analyzed by flow cytometry and 19CAR-T cells were enumerated using CountBright Counting Beads (Thermo Fisher Scientific) following the manufacturer's protocol.

19CAR-T cells [2] = assay: CAR-T cell cytokine production assay; type: cell-based, human; conditions: corticosteroid treatment; JeKo-1 stimulation; IFNg and TNFa
Description: (§1) 10. Monensin and Brefeldin A were added to the cell cultures to inhibit protein secretion for the duration of the stimulation. After the 6 hours, the cells were stained with reagents against 19CAR, CD4, CD8, IFNg, and TNFa, and the cells were also stained using a viability stain. Fluorescence activated cell sorting (FACS) was then used to measure intracellular levels of IFNg (y-axis) and TNFa (x-axis) in CD4^+ 19CAR-T cells. In FIG. 10, the numbers in each quadrant of each contour plot represent the percent of total cells counted that fell within the quadrant.
as §1, with “CD8^+” for “CD4^+”
The following day, T cells were washed, counted and 1×10^5 cells were seeded in duplicate into a 96-well flat bottom plate alone or with 2×10^5 JeKo-1.GFP^+ tumor cells. […] Cells were incubated for 6 hours total before analysis by flow cytometry.

donor T cells = conditions: 10 nM dose of AP1903; cells expressing iCasp9; cited from earlier work
endogenous NK cells = assay: IL-15 treatment of HIS mice, elimination of HLA-deficient T cells; type: in vivo, BLT mice; conditions: 2.5 mg every 2-3 days, 6 total injections
Text: FIGS. 20A to 20E provide plots, a schematic diagram, and a flow cytometry scatter plot showing human immune system (HIS) mice under-reconstituted human NK cells and necessitated IL-15 treatment to eliminate HLA-deficient T cells. FIG. 20A provides a plot showing frequency of human CD56^+ NK cells of CD45^+ cells in PBMCs from human donors (n=10), BLT-NSG mice (Cohort A, n=18; Cohort B, n=15; Cohort C, n=18) and huCD34^+ NCG mice (Cohort D, n=17; Cohort E, n=12; Cohort F, n=24; Cohort G, n=12). FIGS. 20B to 20E relate to an experiment where HIS mice were treated every 2-3 days with recombinant human IL-15 (2.5 mg) or PBS for 6 total injections. Mice were then coinfused 1:1 ratio with allogeneic CD4-based CAR-T cells that were base-edited for TCRKO (HLA+) or TCRKOb2MKOCIITAKO (HLA−). […] Statistical significance was calculated by Wilcoxon matched-pairs signed rank test (FIG. 20E).
For the study described in FIGS. 20A to 20E, BLT mice received intraperitoneal injections every 2-3 days of 2.5 mg recombinant human IL-15 (BioLegend; n=6) or sterile PBS (n=3) for 6 total injections. […] Persistence of 4CAR-T cells was monitored at 1-, 4- and 7-days post-T cell infusion via blood draw from the retro-orbital sinus. […] Persistence of 4CAR-T cells was monitored at 1-day post-T cell infusion and weekly thereafter via blood draw from submandibular vein.

PPIA protein = assay: Flow cytometry of PPIA protein in edited T cells; type: cell-based, human; conditions: T cells edited with ABE8.20m and the guide, five days
Text: FIG. 7 provides a set of overlaid flow cytometry histograms confirming knock-out of PPIA protein expression in primary human T cells edited using base editor systems containing
ABE8.20m and the guide polynucleotide TSBT×6143 or TSBT×6146 (see Table 1 for nucleotide sequences). Five days following being contacted with the base editor systems, the T cells were stained using LIVE/DEAD™ Fixable Near-Infra Red (NIR) stain (Thermo). The cells were then fixed and permeabilized followed by immunostaining using a primary antibody targeting PPIA (polyclonal Cyclophilin A Antibody from ProteinTech; 10720-1-AP). The cells were then contacted with a secondary antibody (polyclonal Goat anti-Rabbit IgG (H+L) Cross-Adsorbed Secondary Antibody labeled using Alexa Fluor™ 488 and available from Invitrogen; A-11008) and analyzed using flow cytometry. Unedited cells and isotype control antibody stained cells were used as controls representing high and low levels of PPIA protein, respectively. The x-axis of FIG. 7 indicates the level of PPIA protein measured. In FIG. 7, the y-axis represents cell counts normalized to the mode cell count measured for PPIA expression levels in a sample (i.e., the most frequently counted expression level was set to have a total cell count value (y-axis value) equal to 100).

| Molecule | antigen-driven proliferation of FKBP1A^KO 19CAR-T cells (19CAR-T cells [1]) | cytokine production of FKBP1A^KO 19CAR-T cells (19CAR-T cells [2]) | PPIA expression (PPIA protein) | also measured |
| --- | --- | --- | --- | --- |
| C[C@@H]1C[C@H]2[C@@H]3CCC4=CC(=O)C=C[C@]4(C)[C@@]3(F)[C@@H](O)C[C@]2(C)[C@@]1(O)C(=O)CO [dexamethasone, Dexamethasone] | suppressed | suppressed | – | – |
| CC[C@H](C(=O)N1CCCC[C@H]1C(=O)O[C@H](CCc1ccc(OC)c(OC)c1)c1cccc(OCC(=O)NCCNC(=O)COc2cccc([C@@H](CCc3ccc(OC)c(OC)c3)OC(=O)[C@@H]3CCCCN3C(=O)[C@@H](CC)c3cc(OC)c(OC)c(OC)c3)c2)c1)c1cc(OC)c(OC)c(OC)c1 [AP1903] | – | – | – | apoptosis of donor T cells (donor T cells): approximately 99% |
| recombinant human IL-15: recombinant human IL-15 (BioLegend) | – | – | – | priming of endogenous NK cells against b2M^KO T cells (endogenous NK cells): prime endogenous NK cells against b2M^KO T cells in vivo |
| C[C@]12C=CC(=O)C=C1CC[C@@H]1[C@@H]2C(=O)C[C@@]2(C)[C@H]1CC[C@]2(O)C(=O)CO [prednisone, Prednisone] | suppressed | suppressed | – | – |
| B1 | – | – | Knock-out of PPIA expression | – |
| B2 | – | – | Knock-out of PPIA expression | – |
